How the values were obtained:
[1] = test system: genes specific for sensitization (BRAK, CTSS, DAPK2, FABP4, HSP27, IL18, HSP90, IL1R2, TPSAB1, CXCR1, DEFB1, DHFR, EHF, IVL, KRT4, MELANA, NGAL, PDZK1IP1, PI3 …); experiment: Expression of the other (non-ARE) sensitization-specific genes in EPISKIN reconstructed skin (quantitative RT-PCR); format: cell-based, human
[2] = official classification: non-sensitizer, irritant, or sensitizing Extreme/Strong/Moderate/Weak; cited from earlier work

For `Oc1ccc(O)cc1` [Hydroquinone], the “BRAK expression compared to control” value ([1]; 10%) was 0.8, the “BRAK grade (NUMBER OF GENES)” value ([1]; 10%) was 0 (if this expression is lower, the grade is 0) and the “CTSS expression compared to control” value ([1]; 10%) was 0.8. For the same compound, the “CTSS grade (NUMBER OF GENES)” value ([1]; 10%) was 0 (if this expression is lower, the grade is 0), the “CXCR1 expression compared to control” value ([1]; 10%) was 2.2 and the “CXCR1 grade (NUMBER OF GENES)” value ([1]; 10%) was 1 (If the expression is greater than 1.3 compared to the control, a grade of 11s given). For the same compound, the “DAPK2 expression compared to control” value ([1]; 10%) was 1.2, the “DAPK2 grade (NUMBER OF GENES)” value ([1]; 10%) was 0 (if this expression is lower, the grade is 0) and the “DEFB1 expression compared to control” value ([1]; 10%) was 1.5. For the same compound, the “DEFB1 grade (NUMBER OF GENES)” value ([1]; 10%) was 1 (If the expression is greater than 1.3 compared to the control, a grade of 11s given), the “DHFR expression compared to control” value ([1]; 10%) was 0.7 and the “DHFR grade (NUMBER OF GENES)” value ([1]; 10%) was 0 (if this expression is lower, the grade is 0). For the same compound, the “EHF expression compared to control” value ([1]; 10%) was 1.2, the “EHF grade (NUMBER OF GENES)” value ([1]; 10%) was 0 (if this expression is lower, the grade is 0) and the “FABP4 expression compared to control” value ([1]; 10%) was 1.2. The “FABP4 grade (NUMBER OF GENES)” value ([1]; 10%) was 0 (if this expression is lower, the grade is 0), the “HSP27 expression compared to control” value ([1]; 10%) was 1.0 and the “HSP27 grade (NUMBER OF GENES)” value ([1]; 10%) was 0 (if this expression is lower, the grade is 0). For the same compound, the “HSP90 expression compared to control” value ([1]; 10%) was 1.2, the “HSP90 grade (NUMBER OF GENES)” value ([1]; 10%) was 0 (if this expression is lower, the grade is 0) and the “IL18 expression compared to control” value ([1]; 10%) was 0.9. For the same compound, the “IL18 grade (NUMBER OF GENES)” value ([1]; 10%) was 0 (if this expression is lower, the grade is 0), the “IVL expression compared to control” value ([1]; 10%) was 1.8 and the “IVL grade (NUMBER OF GENES)” value ([1]; 10%) was 1 (If the expression is greater than 1.3 compared to the control, a grade of 11s given). The “KRT4 expression compared to control” value ([1]; 10%) was 1.2, the “KRT4 grade (NUMBER OF GENES)” value ([1]; 10%) was 0 (if this expression is lower, the grade is 0) and the “MELANA expression compared to control” value ([1]; 10%) was 0.9. For the same compound, the “MELANA grade (NUMBER OF GENES)” value ([1]; 10%) was 0 (if this expression is lower, the grade is 0), the “NGAL expression compared to control” value ([1]; 10%) was 2.0 and the “NGAL grade (NUMBER OF GENES)” value ([1]; 10%) was 1 (If the expression is greater than 1.3 compared to the control, a grade of 11s given). For the same compound, the “P13 expression compared to control” value ([1]; 10%) was 1.4, the “P13 grade (NUMBER OF GENES)” value ([1]; 10%) was 0 (if this expression is lower, the grade is 0) and the “PDZK1iP1 expression compared to control” value ([1]; 10%) was 1.0. The “PDZK1iP1 grade (NUMBER OF GENES)” value ([1]; 10%) was 0 (if this expression is lower, the grade is 0), the “SENS >1.3 (NUMBER OF GENES)” value ([1]; 10%) was 4 and the “SERPINB3 expression compared to control” value ([1]; 10%) was 1.1. For the same compound, the “SERPINB3 grade (NUMBER OF GENES)” value ([1]; 10%) was 0 (if this expression is lower, the grade is 0), the “TOTAL SENS (NUMBER OF GENES)” value ([1]; 10%) was 4 and the “BRAK expression compared to control” value ([1]; 50%) was 0.8. The “BRAK grade (NUMBER OF GENES)” value ([1]; 50%) was 0 (if this expression is lower, the grade is 0), the “CTSS expression compared to control” value ([1]; 50%) was 1.6 and the “CTSS grade (NUMBER OF GENES)” value ([1]; 50%) was 1 (If the expression is greater than 1.3 compared to the control, a grade of 11s given). For the same compound, the “CXCR1 expression compared to control” value ([1]; 50%) was 2.9, the “CXCR1 grade (NUMBER OF GENES)” value ([1]; 50%) was 1 (If the expression is greater than 1.3 compared to the control, a grade of 11s given) and the “DAPK2 expression compared to control” value ([1]; 50%) was 1.0. For the same compound, the “DAPK2 grade (NUMBER OF GENES)” value ([1]; 50%) was 0 (if this expression is lower, the grade is 0), the “DEFB1 expression compared to control” value ([1]; 50%) was 2.0 and the “DEFB1 grade (NUMBER OF GENES)” value ([1]; 50%) was 1 (If the expression is greater than 1.3 compared to the control, a grade of 11s given). For the same compound, the “DHFR expression compared to control” value ([1]; 50%) was 1.1, the “DHFR grade (NUMBER OF GENES)” value ([1]; 50%) was 0 (if this expression is lower, the grade is 0) and the “EHF expression compared to control” value ([1]; 50%) was 1.5. For the same compound, the “EHF grade (NUMBER OF GENES)” value ([1]; 50%) was 1 (If the expression is greater than 1.3 compared to the control, a grade of 11s given), the “FABP4 expression compared to control” value ([1]; 50%) was 1.4 and the “FABP4 grade (NUMBER OF GENES)” value ([1]; 50%) was 1 (If the expression is greater than 1.3 compared to the control, a grade of 11s given). For the same compound, the “HSP27 expression compared to control” value ([1]; 50%) was 1.3, the “HSP27 grade (NUMBER OF GENES)” value ([1]; 50%) was 0 (if this expression is lower, the grade is 0) and the “HSP90 expression compared to control” value ([1]; 50%) was 1.8. For the same compound, the “HSP90 grade (NUMBER OF GENES)” value ([1]; 50%) was 1 (If the expression is greater than 1.3 compared to the control, a grade of 11s given), the “IL18 expression compared to control” value ([1]; 50%) was 0.9 and the “IL18 grade (NUMBER OF GENES)” value ([1]; 50%) was 0 (if this expression is lower, the grade is 0). The “IVL expression compared to control” value ([1]; 50%) was 2.6, the “IVL grade (NUMBER OF GENES)” value ([1]; 50%) was 1 (If the expression is greater than 1.3 compared to the control, a grade of 11s given) and the “KRT4 expression compared to control” value ([1]; 50%) was 1.1. The “KRT4 grade (NUMBER OF GENES)” value ([1]; 50%) was 0 (if this expression is lower, the grade is 0), the “MELANA expression compared to control” value ([1]; 50%) was 1.6 and the “MELANA grade (NUMBER OF GENES)” value ([1]; 50%) was 1 (If the expression is greater than 1.3 compared to the control, a grade of 11s given). For the same compound, the “NGAL expression compared to control” value ([1]; 50%) was 1.3, the “NGAL grade (NUMBER OF GENES)” value ([1]; 50%) was 0 (if this expression is lower, the grade is 0) and the “P13 expression compared to control” value ([1]; 50%) was 1.7. For the same compound, the “P13 grade (NUMBER OF GENES)” value ([1]; 50%) was 1 (If the expression is greater than 1.3 compared to the control, a grade of 11s given), the “PDZK1iP1 expression compared to control” value ([1]; 50%) was 1.0 and the “PDZK1iP1 grade (NUMBER OF GENES)” value ([1]; 50%) was 0 (if this expression is lower, the grade is 0). The “SENS >1.3 (NUMBER OF GENES)” value ([1]; 50%) was 11, the “SERPINB3 expression compared to control” value ([1]; 50%) was 1.1 and the “SERPINB3 grade (NUMBER OF GENES)” value ([1]; 50%) was 0 (if this expression is lower, the grade is 0). The “TOTAL SENS (NUMBER OF GENES)” value ([1]; 50%) was 11 and the Class [2] was “S”.
